{"source": "paper PMC4571851", "about": "“Arginine-Ornithine Antiporter ArcD Controls Arginine Metabolism and Interspecies Biofilm Development of Streptococcus gordonii” (The Journal of Biological Chemistry, 2015)", "target": "T1, ArcD (arginine-ornithine antiporter) (Streptococcus gordonii, UniProt A8AYK8)", "T1 construct": "native full-length membrane transporter in intact wild-type S. gordonii cells; deletion mutant and complemented strain as controls", "T1 sequence (A8AYK8 entry or part of it)": "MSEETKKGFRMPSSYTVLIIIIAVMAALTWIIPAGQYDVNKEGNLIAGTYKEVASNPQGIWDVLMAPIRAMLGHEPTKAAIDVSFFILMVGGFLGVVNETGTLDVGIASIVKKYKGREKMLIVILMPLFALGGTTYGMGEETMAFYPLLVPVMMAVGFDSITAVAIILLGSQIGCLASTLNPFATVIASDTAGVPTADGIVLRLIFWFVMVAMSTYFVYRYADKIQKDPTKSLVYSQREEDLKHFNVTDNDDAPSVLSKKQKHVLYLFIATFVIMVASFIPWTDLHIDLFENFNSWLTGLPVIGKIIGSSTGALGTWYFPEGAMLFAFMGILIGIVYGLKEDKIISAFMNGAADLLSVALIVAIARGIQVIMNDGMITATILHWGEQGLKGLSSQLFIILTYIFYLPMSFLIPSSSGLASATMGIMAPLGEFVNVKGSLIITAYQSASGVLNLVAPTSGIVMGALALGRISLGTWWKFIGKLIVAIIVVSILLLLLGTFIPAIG", "experiment": "inhibition of [3H]arginine uptake into intact wild-type cells", "format": "cell-based", "conditions": "whole cells in PBS, 20 s, 50 μM labelled arginine, unlabelled ornithine at 100-fold excess"}
{"smiles": "NCCC[C@H](N)C(=O)O", "note": "[Ornithine]", "values": [{"measurement": "% inhibition at 100-fold excess", "value": "Ornithine also had a moderate effect on the inhibition of arginine uptake"}]}
